Reference: publication PMC3690544 (European journal of pharmacology, 2012)
Like-named read-outs stand apart in the source and are kept apart here.

Assays:
P-glycoprotein (Pgp) [1] = target: T1, P-glycoprotein (Pgp) (Homo sapiens, UniProt P08183); assay type: cell-based
P-glycoprotein (Pgp) [2] = target: T1, P-glycoprotein (Pgp); assay type: cell-based; remark: listed apart in the source

T1 sequence (P08183 whole entry): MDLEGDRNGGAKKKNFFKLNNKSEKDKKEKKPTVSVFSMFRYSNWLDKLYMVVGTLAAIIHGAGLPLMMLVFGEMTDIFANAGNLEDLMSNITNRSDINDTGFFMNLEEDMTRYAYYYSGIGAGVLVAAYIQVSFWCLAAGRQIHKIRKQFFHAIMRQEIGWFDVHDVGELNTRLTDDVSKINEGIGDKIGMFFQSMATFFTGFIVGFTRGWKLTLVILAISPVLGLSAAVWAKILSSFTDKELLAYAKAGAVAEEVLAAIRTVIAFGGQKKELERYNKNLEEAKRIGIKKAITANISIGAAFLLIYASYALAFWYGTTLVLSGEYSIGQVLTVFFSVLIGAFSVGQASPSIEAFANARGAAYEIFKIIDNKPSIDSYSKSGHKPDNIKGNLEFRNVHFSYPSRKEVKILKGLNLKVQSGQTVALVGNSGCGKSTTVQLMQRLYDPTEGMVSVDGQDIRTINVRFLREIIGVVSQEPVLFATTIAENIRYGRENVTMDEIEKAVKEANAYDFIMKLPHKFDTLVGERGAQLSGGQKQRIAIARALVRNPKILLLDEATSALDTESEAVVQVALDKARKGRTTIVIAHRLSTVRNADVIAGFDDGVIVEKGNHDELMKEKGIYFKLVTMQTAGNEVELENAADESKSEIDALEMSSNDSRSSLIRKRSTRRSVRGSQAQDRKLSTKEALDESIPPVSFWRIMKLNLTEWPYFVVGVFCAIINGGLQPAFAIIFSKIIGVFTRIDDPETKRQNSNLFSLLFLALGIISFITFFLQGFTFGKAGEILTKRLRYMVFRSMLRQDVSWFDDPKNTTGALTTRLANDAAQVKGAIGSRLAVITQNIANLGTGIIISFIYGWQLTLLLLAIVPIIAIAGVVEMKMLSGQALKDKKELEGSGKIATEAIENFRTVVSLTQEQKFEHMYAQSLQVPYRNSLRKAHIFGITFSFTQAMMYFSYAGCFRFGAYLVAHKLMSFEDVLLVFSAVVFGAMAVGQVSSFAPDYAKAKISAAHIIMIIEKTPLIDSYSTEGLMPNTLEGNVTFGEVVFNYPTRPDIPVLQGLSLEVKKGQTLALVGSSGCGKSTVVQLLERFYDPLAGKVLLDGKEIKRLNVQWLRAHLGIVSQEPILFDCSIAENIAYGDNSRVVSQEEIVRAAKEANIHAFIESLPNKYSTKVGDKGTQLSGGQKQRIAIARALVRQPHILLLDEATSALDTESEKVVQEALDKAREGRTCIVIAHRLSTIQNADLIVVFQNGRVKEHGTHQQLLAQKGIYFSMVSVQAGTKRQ

Row | IC50 (P-glycoprotein (Pgp) [1]) [µM] | IC50 (P-glycoprotein (Pgp) [2]) [µM] | SMILES
1 | 0.0131 ± 0.0023 |  | COc1cc2c(cc1OC)CN(CCc1ccc(-n3nnc(-c4cc(OC)c(OC)cc4NC(=O)c4cc(=O)c5ccccc5o4)n3)cc1)CC2 [HM30181, N-(2-(2-(4-(2-(6,7-dimethoxy-3,4-dihydroisoquinolin-2(1H)-yl)ethyl)phenyl)-2H-tetrazol-5-yl)-4,5-dimethoxyphenyl)-4-oxo-4H-chromene-2-carboxamide]
2 |  | 0.0082 ± 0.002 | COc1cc2c(cc1OC)CN(CCc1ccc(NC(=O)c3cc(OC)c(OC)cc3NC(=O)c3cnc4ccccc4c3)cc1)CC2 [tariquidar]
